Data published in US20040067998A1, “Antifungal and/or antiparasitic pharmaceutical composition and novel indole derivatives as active principle of such a composition” (priority 2003, published 2004).
≈ marks a conversion by molar mass, not a printed value. Where “and” joins values, the source holds several entries; their conditions need not be identical. Equal entries are not always repeated. Entries after “also recorded” stand apart in the source; their conditions may differ. Where two headings read alike, the source gives them in different places.

Key:
[1] = system: promastigote stage of Leishmania mexicana; test: Antiparasitic activity on the promastigote form of Leishmania (MTT); type: cell-based
[2] = system: Aspergillus fumigatus (strain n°AF 980003); test: Antifungal activity on a clinical strain of Aspergillus fumigatus (Alamar Blue microplate test); type: cell-based; conditions: strain AF980003; for MIC: read-out: CMI or CI80 Aspergillus fumigatus (AF980003)
[3] = system: Candida albicans (strain n° CA980001); test: Antifungal activity on a clinical strain of Candida albicans (MTT colorimetric microplate test); type: cell-based; conditions: for MIC / CMI or CI80 Candida albicans (CA980001): strain CA980001; for MIC: read-out: CMI or CI80 Candida albicans (CA980001); for activity of inhibition of Candida albicans (in words): summary of Tables 27 to 40
[4] = system: intracellular amastigote form of Leishmania mexicana; test: Anti-leishmanian activity on the amastigote form in peritoneal macrophages of BALB/c mice; type: cell-based; conditions: for IC50: Leishmania mexicana, Peritoneal macrophage, read-out: CI50 Intracellular amastigotes
[5] = system: Candida albicans (CA98001); test: Antifungal activity in vivo on a model of disseminated candidiasis; set-up: species or system female Swiss mice
[6] = system: Candida parapsilosis (2 strains); test: Antifungal activity in vitro on clinical strains of Candida: parapsilosis (2 strains); type: cell-based; conditions: for activity against Candida parapsilosis (in words): clinical strains
[7] = system: Candida krusei (4 strains); test: Antifungal activity in vitro on clinical strains of Candida: krusei (4 strains); type: cell-based; conditions: for activity against Candida krusei (in words): clinical strains, b748: one strain
[8] = system: Candida albicans (4 strains); test: Antifungal activity in vitro on clinical strains of Candida: albicans (4 strains); type: cell-based; conditions: for activity against strains of Candida albicans (in words): clinical strains
[9] = system: Candida lusitaniae (1 strain); test: Antifungal activity in vitro on clinical strains of Candida: lusitaniae (1 strain); type: cell-based; conditions: for CI80 on clinical strains of Candida: strain CL980001 (Candida lusitaniae); for activity against Candida lusitaniae (in words): clinical strain
[10] = strain CP980002 (Candida parapsilosis)
[11] = Test N°3, ketoconazole 20 mg/kg/d for 5 d
[12] = strain CK980002 (Candida krusei)
[13] = strain CK980003 (Candida krusei)
[14] = strain CK980004 (Candida krusei)
[15] = strain CA980001 (Candida albicans)
[16] = read-out: CI50 Leishmania mexicana Promastigotes
[17] = promastigotes; read-out: CI50 Leishmania mexicana Promastigotes
[18] = strain CP980001 (Candida parapsilosis)
[19] = strain CK980001 (Candida krusei)
[20] = strain CA980002 (Candida albicans)
[21] = strain CA980003 (Candida albicans)
[22] = strain CA980005 (Candida albicans)

| Structure (SMILES) | CI80 on clinical strains of Candida [6, 10] [nM] | CI80 on clinical strains of Candida [7, 12] [nM] | CI80 on clinical strains of Candida [7, 13] [nM] | CI80 on clinical strains of Candida [7, 14] [nM] | CI80 on clinical strains of Candida [8, 15] [nM] | CMI or CI80 Candida albicans (CA980001) [3] | CI80 on clinical strains of Candida [9] [nM] | CMI or CI80 Aspergillus fumigatus (AF980003) [2] | CI50 Leishmania mexicana Promastigotes ([1]; promastigotes) [µg/mL] | IC50 [1, 17] [nM] | CI80 on clinical strains of Candida [6, 18] [nM] | CI80 on clinical strains of Candida [7, 19] [nM] | activity against strains of Candida albicans (in words) [8] | CI80 on clinical strains of Candida [8, 20] [nM] | CI80 on clinical strains of Candida [8, 21] [nM] | CI80 on clinical strains of Candida [8, 22] [nM] | MIC [3] [µM] | activity of inhibition of Candida albicans (in words) [3] | activity against Candida lusitaniae (in words) [9] | further results |
| --- | --- | --- | --- | --- | --- | --- | --- | --- | --- | --- | --- | --- | --- | --- | --- | --- | --- | --- | --- | --- |
| Brc1ccc(C(Cn2ccc3ccccc32)n2ccnc2)cc1 (centres unmarked) [Cpsé 84, 1-[2-(4-Bromophenyl)-2-(1H-imidazol-1-yl)ethyl]-1H-indole] |  |  |  |  |  |  |  |  |  |  |  |  |  |  |  |  |  |  |  | activity against Leishmania mexicana (in words) [1]: most active; IC50 ([1]; Leishmania mexicana; read-out: CI50 Leishmania mexicana Promastigotes): 0.16 µg/mL and 370 nM; MIC ([2]; Aspergillus fumigatus): > 100 µM; MIC ([3]; Candida albicans, 24 h): > 100 µM; activity against the intracellular amastigote form of Leishmania (in words) [4]: very active; IC50 ([4]; intracellular amastigote form): 3.1 ± 0.04 µg/mL (≈ 8.46 µM) |
| OC(Cn1cncn1)(Cn1cncn1)c1ccc(F)cc1F [Fluconazole, fluconazole, reference compound] |  |  |  |  |  |  |  |  |  |  |  |  |  |  |  |  |  |  |  | survival at D10 ([5]; mouse, in vivo): 100%; MIC ([3]; Candida albicans, 24 h at 37° C., MTT): 0.07 µM (≈ 0.0214 µg/mL); CMI or CI80 Candida albicans (CA980001) ([3]; 24 h at 37° C., MTT): 0.02 µg/mL |
| CC(=O)N1CCN(c2ccc(OCC3COC(Cn4ccnc4)(c4ccc(Cl)cc4Cl)O3)cc2)CC1 (centres unmarked) [Ketoconazole, ketoconazole, reference compound] | <10 | 700 ± 20 | 800 ± 20 | <10 | 5 | 0.005 µg/mL | <10 |  |  |  |  |  |  |  |  |  |  |  |  | IC50 ([1]; Leishmania mexicana, read-out: CI50 Leishmania mexicana Promastigotes): 3 ± 0.5 µg/mL; survival at D14 ([5]; Test N°1, ketoconazole 20 mg/kg/d for 5 d): 88%; survival at D14 ([5]; Test N°2, ketoconazole 10 mg/kg/d for 5 d): Ketoconazole: no survival at D14.; survival at D14 [5, 11]: 88%; survival at D18 [5, 11]: 50%; survival at D10 ([5]; Test N°4, ketoconazole 20 mg/kg/d for 5 d): 50%; MIC ([3]; Candida albicans, 24 h): 0.0094 µM (≈ 0.005 µg/mL); IC50 [4]: 1.3 ± 0.2 µg/mL (≈ 2.45 µM) |
| Cc1c(C(C)n2ccnc2)c2ccccc2n1Cc1ccc(F)cc1 (centres unmarked) [compound 72] |  |  |  |  |  | 67 ± 3 μM and 22 ± 1 μg/mL |  | 69 ± 1 μM and 23 ± 1 μg/mL |  |  |  |  |  |  |  |  |  |  |  | CI50 Leishmania mexicana Promastigotes [1]: 0.7 ± 0.3 µg/mL (≈ 2.1 µM); IC50 [1, 16]: 2000 ± 1000 nM |
| OC(Cn1ccnc1)(Cn1ccc2ccccc21)c1ccc(Br)cc1 (centres unmarked) [compound 73] | 4650 ± 110 | 12810 ± 2220 | 92270 ± 3900 | >100000 | 60 ± 2 | 0.02 µg/mL | 630 ± 10 |  | 2.7 ± 0.08 (≈ 6.81 µM) | 6650 ± 220 | 670 ± 0 | 650 ± 10 | active; also recorded: very active | 630 ± 16 | 550 ± 96.3 | 530 ± 22 | 0.06 (≈ 0.0238 µg/mL) | most active | very active | activity against Candida parapsilosis (in words) [6]: very active; activity against Candida krusei (in words) [7]: active; also recorded: very active; MIC [2]: >100 µM |
| OC(Cn1ccnc1)(Cn1ccc2ccccc21)c1ccc(Cl)cc1 (centres unmarked) [compound 74] | 3710 ± 1246 | 7740 ± 130 | >100000 | >100000 | 61 ± 4 | 0.02 µg/mL | 630 ± 10 | 83 ± 4 μM and 29 ± 1 μg/mL | 5 ± 0.2 (≈ 14.2 µM) | 15000 ± 600 | 690 ± 30 | 59290 ± 1330 | very active | 470 ± 17 | 70 ± 4.7 | 300 ± 24 | 0.07 (≈ 0.0246 µg/mL) | most active | very active | activity against Candida parapsilosis (in words) [6]: very active |
| OC(Cn1ccnc1)(Cn1ccc2ccccc21)c1ccc(Cl)cc1Cl (centres unmarked) [compound 75] | 860 ± 40 |  | >1000 | 4200 ± 100 | <1 |  | 300 ± 100 | 4 ± 0 μM and 1 ± 0 μg/mL | 1.47 (≈ 3.81 µM) | 4000 | 1000 ± 100 | 620 ± 2 | active | 650 ± 10 | 640 ± 10 | 710 ± 10 | <0.001 | most active |  | activity on survival at the end of the experiment (D14) (in words) ([5]; Test N°1, 20 mg/kg/d for 5 d): not on survival at the end of the experiment; activity on the survival at D4-D5 (in words) ([5]; Test N°1, 20 mg/kg/d for 5 d): slight activity; survival improved compared to the control batch ([5]; Test N°1, day 8 (D8), daily dose of 20 mg/kg): 25%; survival at D14 ([5]; Test N°2, 2 × 30 mg/kg/d for 5 d intraperitoneally): Compound 75: no survival at end of experiment (D14).; effect of treatment on the survival of the animals (in words) ([5]; Test N°2, 2 × 30 mg/kg/d for 5 d intraperitoneally, monitored 14 days (78: from D9 to D14)): ineffective; activity against Candida krusei (in words) [7]: active |
| OC(Cn1ccnc1)(Cn1ccc2ccccc21)c1ccc(F)cc1 (centres unmarked) [compound 76] | 6320 ± 140 | 38050 ± 7240 | 85270 ± 324 | >100000 | 67 ± 5 | 0.03 µg/mL | 690 ± 80 | 88 ± 2 μM and 30 ± 0.7 μg/mL | 3 ± 0.03 (≈ 8.95 µM) | 9200 ± 90 | 4100 ± 350 | 65380 ± 3710 | very active | 610 ± 22 | 250 ± 110 | 440 ± 44 | 0.08 (≈ 0.0268 µg/mL) | most active | very active |  |
| OC(Cn1ccnc1)(Cn1ccc2ccccc21)c1ccc(F)cc1F (centres unmarked) [compound 77] |  |  |  |  |  | 0.00035 µg/mL |  | 11 ± 7 μM and 4 ± 2 μg/mL | 1.59 (≈ 4.5 µM) | 4500 |  |  |  |  |  |  | 0.0011 (≈ 0.000389 µg/mL) | most active |  |  |
| Clc1ccc(C(Cn2ccc3ccccc32)n2ccnc2)cc1 (centres unmarked) [compound 85] |  |  |  |  |  |  |  | 88 ± 5 μM and 28 ± 2 μg/mL |  |  |  |  |  |  |  |  | >100 |  |  | IC50 [1, 16]: > 100000 nM |
